In ChEMBL document CHEMBL1641488, “Computational approach to the identification of novel Aurora-A inhibitors” (Bioorg Med Chem, 2011):

Experiments:
HT-29 [1] = experiment: Cytotoxicity against human HT-29 cells at 10 uM after 4 hrs by MTT assay; format: functional; conditions: HT-29, 4 h
DU-145 [2] = experiment: Cytotoxicity against human DU145 cells at 10 uM after 4 hrs by MTT assay; format: functional; conditions: DU-145, 4 h
HT-29 [3] = experiment: Cytotoxicity against human HT-29 cells after 4 hrs by MTT assay; format: functional; conditions: HT-29, 4 h
Aurora kinase A = biological target: T1, Aurora kinase A (Homo sapiens, UniProt O14965); experiment: Inhibition of human recombinant His-tagged Aurora A kinase expressed in insect cells
T1 sequence (O14965 whole entry): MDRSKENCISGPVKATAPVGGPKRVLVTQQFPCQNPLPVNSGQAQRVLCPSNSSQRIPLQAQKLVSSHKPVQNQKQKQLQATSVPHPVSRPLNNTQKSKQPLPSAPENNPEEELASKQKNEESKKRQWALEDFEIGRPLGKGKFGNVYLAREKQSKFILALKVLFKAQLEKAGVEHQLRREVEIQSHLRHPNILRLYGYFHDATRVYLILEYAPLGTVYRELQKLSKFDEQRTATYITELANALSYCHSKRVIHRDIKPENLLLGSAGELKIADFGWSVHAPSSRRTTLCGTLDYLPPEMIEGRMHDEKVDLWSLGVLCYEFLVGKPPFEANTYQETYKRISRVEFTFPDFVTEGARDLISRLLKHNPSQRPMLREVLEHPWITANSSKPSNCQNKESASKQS

DU-145 [4] = experiment: Cytotoxicity against human DU145 cells after 4 hrs by MTT assay; format: functional; conditions: DU-145, 4 h

Compound Cc1ccc(Nc2cc(Nc3ccc(NS(=O)(=O)c4ccccc4F)cc3)nc(C)n2)cc1 has an inhibition at 10 µM (HT-29 [1]) of 83%, an inhibition at 10 µM (DU-145 [2]) of 38% and a GI50 (HT-29 [3]) of 5.12 µM. For the same compound, the IC50 (Aurora kinase A) was “Not Active” and the GI50 (DU-145 [4]) was 23.4 µM.

CC(=O)Nc1cccc(NC(=O)C(=O)NCCc2sc(-c3ccc(Cl)cc3)nc2C)c1 gave an inhibition at 10 µM (HT-29 [1]) of 54%, an inhibition at 10 µM (DU-145 [2]) of 32% and a GI50 (HT-29 [3]) of 16.5 µM. The IC50 (Aurora kinase A; read-out: IC50) was > 100 µM and the GI50 (DU-145 [4]) was > 100 µM.

Work on Cc1ccc(-c2nnc(Nc3ccc(Oc4ncccc4-c4c[nH]nc4N)cc3)c3ccccc23)cc1 yielded an IC50 (Aurora kinase A; read-out: IC50) of 0.06 µM.

Work on COc1ccc(N(CC(=O)Nc2cc(Cl)ccc2C)S(=O)(=O)c2c(C)n[nH]c2C)cc1 yielded an inhibition at 10 µM (HT-29 [1]) of 87%, an inhibition at 10 µM (DU-145 [2]) of 74% and a GI50 (HT-29 [3]) of 3.98 µM. For the same compound, the IC50 (Aurora kinase A) was “Not Active” and the GI50 (DU-145 [4]) was 5.98 µM.

With COc1ccc(C(=O)Nc2ccccc2C(=O)NC(Cc2ccc(O)cc2)C(=O)Nc2ccc(C)cc2C)cc1 (stereo unspecified) the inhibition at 10 µM (HT-29 [1]) was 73%, the inhibition at 10 µM (DU-145 [2]) was 90% and the GI50 (HT-29 [3]) was 5.23 µM. It also gave an IC50 (Aurora kinase A; read-out: IC50) of 5.09 µM and a GI50 (DU-145 [4]) of 2.73 µM.

With COc1ccc2cc(C(=O)C3CCC(C(C)C(=O)NCCC4=CCCCC4)CC3)[nH]c2c1 (stereo unspecified) the inhibition at 10 µM (HT-29 [1]) was 68%, the inhibition at 10 µM (DU-145 [2]) was 49% and the GI50 (HT-29 [3]) was 9.36 µM. It also gave an IC50 (Aurora kinase A; read-out: IC50) of 86.2 µM and a GI50 (DU-145 [4]) of 15.9 µM.

CCOc1ccc2nc(Nc3nc(O)c4ccccc4n3)nc(C)c2c1 was tested, and the inhibition at 10 µM (HT-29 [1]) was 89%, the inhibition at 10 µM (DU-145 [2]) was 80% and the GI50 (HT-29 [3]) was 29.1 µM. The IC50 (Aurora kinase A; read-out: IC50) was 16.7 µM and the GI50 (DU-145 [4]) was 36.9 µM.

CCOc1ccc2cc(CNc3cc(OC)cc(OC)c3)c(=O)[nH]c2c1 [ASN07410292] was tested, and the inhibition at 10 µM (HT-29 [1]) was 88%, the inhibition at 10 µM (DU-145 [2]) was 80% and the GI50 (HT-29 [3]) was 3.64 µM. For the same compound, the IC50 (Aurora kinase A) was “Not Active” and the GI50 (DU-145 [4]) was 5.81 µM.

Compound COc1ccc(-c2cc(C(=O)Nc3ccc(C)cc3C)c3c(-c4ccccc4)[nH]nc3n2)cc1OC has an inhibition at 10 µM (HT-29 [1]) of 91%, an inhibition at 10 µM (DU-145 [2]) of 92% and a GI50 (HT-29 [3]) of 1.65 µM. For the same compound, the IC50 (Aurora kinase A; read-out: IC50) was > 100 µM and the GI50 (DU-145 [4]) was 2.06 µM.

COc1ccc(OCC(O)Cn2c(N/N=C/c3ccccc3O)nc3c2c(=O)[nH]c(=O)n3C)cc1 (stereo unspecified) was tested, and the inhibition at 10 µM (HT-29 [1]) was 58%, the inhibition at 10 µM (DU-145 [2]) was 23% and the GI50 (HT-29 [3]) was 7.94 µM. For the same compound, the IC50 (Aurora kinase A; read-out: IC50) was 18.4 µM and the GI50 (DU-145 [4]) was 27.7 µM.

COc1ccc2sc(SCC(=O)Nc3ncc(Br)s3)nc2c1 showed an inhibition at 10 µM (HT-29 [1]) of 89%, an inhibition at 10 µM (DU-145 [2]) of 49% and a GI50 (HT-29 [3]) of 2.04 µM. For the same compound, the IC50 (Aurora kinase A; read-out: IC50) was > 100 µM and the GI50 (DU-145 [4]) was 17 µM.

Work on CCCOc1ccc(CNC(=O)c2[nH]c3cc(C)ccc3c2Sc2ccccc2)cc1 yielded an inhibition at 10 µM (HT-29 [1]) of 64%, an inhibition at 10 µM (DU-145 [2]) of 34% and a GI50 (HT-29 [3]) of 5.36 µM. The IC50 (Aurora kinase A) was “Not Active” and the GI50 (DU-145 [4]) was 26 µM.

CCOc1ccc(NC(=O)Cn2c(Nc3ccc(OCC)cc3)nc3c2c(=O)[nH]c(=O)n3C)cc1 showed an inhibition at 10 µM (HT-29 [1]) of 62%, an inhibition at 10 µM (DU-145 [2]) of 57% and a GI50 (HT-29 [3]) of 7.91 µM. For the same compound, the IC50 (Aurora kinase A; read-out: IC50) was 98.7 µM and the GI50 (DU-145 [4]) was > 100 µM.

Cc1ccc(NC(=O)C(Cc2ccc(O)cc2)NC(=O)c2ccccc2N)cc1 (stereo unspecified) was tested, and the inhibition at 10 µM (HT-29 [1]) was 54%, the inhibition at 10 µM (DU-145 [2]) was 87% and the GI50 (HT-29 [3]) was 9.48 µM. It also gave an IC50 (Aurora kinase A; read-out: IC50) of 11.9 µM and a GI50 (DU-145 [4]) of 3.93 µM.

Work on CCOc1ccc(NC(=S)N(CCN(CC)CC)Cc2cc3cc4c(cc3[nH]c2=O)OCCO4)cc1 [ASN03776845] yielded an inhibition at 10 µM (HT-29 [1]) of 78%, an inhibition at 10 µM (DU-145 [2]) of 49% and a GI50 (HT-29 [3]) of 6.33 µM. The IC50 (Aurora kinase A) was “Not Active” and the GI50 (DU-145 [4]) was 14.1 µM.

For CCOc1ccc2nc(NC3=NC(=O)CC(c4ccc(OC)cc4)N3)nc(C)c2c1 (stereo unspecified), the inhibition at 10 µM (HT-29 [1]) was 85%, the inhibition at 10 µM (DU-145 [2]) was 84% and the GI50 (HT-29 [3]) was 7.08 µM. The IC50 (Aurora kinase A) was “Not Active” and the GI50 (DU-145 [4]) was 4.26 µM.
